Test results: patent US20110086395A1, “NOVEL MICROORGANISM AND ITS USE IN LIGNOCELLULOSE DETOXIFICATION” (priority 2009, published 2011)
Marks after values point to notes of the source that are not given here.

Key:
C. basilensis HMF14 [1] = assay: Growth of C. basilensis HMF14 on furan derivatives as sole carbon source; type: cell-based, Cupriavidus basilensis; conditions: minimal medium, 3.5 mM compound as sole carbon source
Protocol: Cultures were performed either in Luria broth (LB) or in a minimal medium (MM). Enrichment cultures were performed in MM with 20 mM HMF as the carbon source (MMH20), supplemented as indicated with 0.1 g/l yeast extract as vitamin source (MMyH20). Solid media contained 1.5% agar. Soil and water samples were collected from the botanical garden of the Delft University of Technology and from a peat lake named ‘het Kootwijkerveen’ near Apeldoorn, The Netherlands. The samples were mixed and approximately 1 g was used to inoculate 50 ml MMH2O or MMyH2O in 500-ml Erlenmeyer flasks that were incubated at 30° C. for two days in a rotary shaker. One-ml samples were transferred twice to fresh medium and incubated until bacterial growth was apparent (OD600>1). The final enrichment cultures were streaked onto solid MMH10 and MMyH10 and incubated at 30° C. until colonies appeared.
(§1) Bacterial growth was determined by measuring optical density at 600 nm (OD600) using a Biowave Cell Density Meter (WPA Ltd) or a μQuant MQX200 universal microplate spectrophotometer (Bio-tek), using flat-bottom 96-well microplates (Greiner). Furan derivatives were analyzed on an Agilent 1100 system equipped with a diode array detector set at 230 nm. The column used was a Zorbax Eclipse XDB-C8 (length, 150 mm; internal diameter, 4.6 mm; particle size, 5 μm; Agilent) operated at 25° C. As eluent, a gradient of acetonitrile in 20 mM KH2PO4 (pH 2) with 1% acetonitrile was used at a flow of 1.2 ml/min, increasing from 0 to 5% in 3.5 min and from 5 to 40% in 2.5 min, set as smooth gradients.
In addition to HMF, other furan derivatives are present in lignocellulosic hydrolysates. […] Growth was observed on all tested furan derivatives, with slightly different growth characteristics (table 1). In cultures on furfural, furfural was initially rapidly converted to furfuryl alcohol, while also a small amount of furoic acid was formed (FIG. 1). Without wishing to be bound to any particular theory, conversion of furfural to its alcohol and/or acid form appears to be a common mechanism of furfural detoxification. At the onset of logarithmic growth, furfuryl alcohol production decreased in favour of biomass formation, which likely occurs via furoic acid. Similarly, HMF acid and -alcohol were formed in cultures with HMF as the carbon source. In addition, trace amounts of 2,5-furandicarboxylic acid and furoic acid were found in the HMF cultures (not shown).

C. basilensis HMF14 [2] = assay: Degradation of constituents of lignocellulosic hydrolysate, shake-flask cultures with each compound as single carbon source; type: cell-based, Cupriavidus basilensis
Description: In addition to the furan derivatives, lignocellulosic hydrolysate also contains many other components that can inhibit fermentative production of biochemicals. While C. basilensis HMF14 is unable to degrade the sugars present in lignocellulosic hydrolysate, it preferably degrades many of the other toxic constituents, as illustrated in shake-flask cultures with each compound as a single carbon source (table 3).

C. basilensis HMF14 [3] = assay: Tolerance of C. basilensis HMF14 towards furfural and HMF, shake-flask cultures; type: cell-based, Cupriavidus basilensis; conditions: for Growth in the presence of compound: 5 mM; for Growth after 24 h of cultivation: shake-flask cultures with 3-15 mM furfural or HMF
Protocol: C. basilensis HMF14 grew in the presence of 5 mM of furfural or HMF (0.48 g/l, and 0.63 g/l respectively). However, since the concentration of these toxic compounds is often higher in lignocellulosic hydrolysates, with values ranging from 0 to 3.5 g/l for furfural, and from 0 to 5.9 g/l for HMF, the tolerance of C. basilensis HMF14 towards furfural and HMF was determined in shake-flask cultures with 3-15 mM furfural or HMF (FIG. 2, table 2). […] Also in the HMF cultures, no stable exponential growth was observed, but the apparent growth rate decreased rather than increased with increasing HMF concentrations.

[4] = tested on: P. putida S12 pJT′hmfABCDE; assay: Growth of P. putida S12 pJT′hmfABCDE on furanics as sole carbon source; type: cell-based, Pseudomonas putida; conditions: growth initially poor
Description: (§2) First, the furfural cluster hmfABCDE was introduced into P. putida S12. […] Therefore, strain S12 pJT′hmfABCDE was repeatedly transferred to fresh mineral salts medium with furfural as the sole carbon source.

P. putida strain S12_fur = assay: Growth of P. putida S12_fur on furfural as sole carbon source; type: cell-based, Pseudomonas putida
Description: as §2

P. putida S12_HMF = assay: Growth of P. putida S12_HMF on furfural or HMF as sole carbon source; type: cell-based, Pseudomonas putida
Description: Subsequently, the hmfFGH genes were cloned into P. putida S12_fur. […] Gene hmfH′ was apparently dispensable for growth on HMF, confirming that the encoded gene had no function in HMF metabolism. Nor was the gene essential for HMF transport in P. putida S12. Thus, also all genes required for the utilization of HMF were characterized, and their functionality was reconfirmed by functional expression in a heterologous host.

HmfH = assay: Oxidation by HmfH in cell extracts; type: biochemical; conditions: cell extracts of wildtype C. basilensis HMF14 and P. putida S12 expressing HmfH
Protocol: C. basilensis HMF14 mutants with a disrupted hmfH gene accumulated HMF acid when cultured in the presence of HMF. Cell extracts of both wildtype C. basilensis HMF14 and P. putida S12 expressing HmfH formed FDCA when incubated with HMF acid, confirming that HmfH catalyzes the oxidation of the HMF-monocarboxylic acid to the dicarboxylic acid form.
Analogous to the furfural pathway, no specific genes were identified for the oxidations in the upper HMF metabolic pathway leading from HMF-alcohol to HMF and HMF-acid. Also these oxidations were concluded to be performed by non-specific, redundant dehydrogenases which activities were observed both in C. basilensis HMF14 and P. putida S12 (Table 2). However, it was observed that also HmfH could oxidize HMF, furfural, and furfuryl alcohol to the corresponding acids, respectively, furfural. Apparently, this oxidase is essential for the formation of FDCA from HMF-acid but also provides an oxidase-alternative to the non-specific alcohol and aldehyde dehydrogenases that constitute the upper metabolic pathways for HMF and furfural.

Ralstonia eutropha = conditions: cited from earlier work
Cupriavidus sp. HMF14 = assay: Growth of Cupriavidus sp. HMF14 on carbon sources (strain characterization); type: cell-based, Cupriavidus basilensis
C. basilensis HMF14 [5] = assay: Detoxification of wheat straw hydrolysate by C. basilensis HMF14; type: cell-based, Cupriavidus basilensis; conditions: for Concentration in hydrolysate during cultivation: during the first ten hours of cultivation; for Removal from wheat straw hydrolysate: after ten hours of cultivation
Protocol: Wheat straw hydrolysate was produced by dilute-acid hydrolysis (obtained from TNO Quality of Life, Zeist, The Netherlands). The hydrolysate was neutralized by adding 37 mM phosphate buffer (pH 7) and adjusting the pH to 7.0 with 10 M NaOH, resulting in a brown precipitate. After addition of minimal medium components, the solution was centrifuged at 10 000×g for 5 min. The supernatant was filter sterilized through a sterile PTFE filter with a pore size of 0.22 μm. The resulting medium (MMhyd) was inoculated with an overnight pre-culture of C. basilensis HMF14 in minimal medium with 3 mM HMF, 3 mM furfural and 12 mM sodium succinate.
as §1
Glucose, xylose and arabinose were analyzed by ion chromatography (Dionex ICS3000 system), using a CarboPac PA20 column (length, 150 mm; internal diameter, 3 mm) with 10 mM NaOH at a flow rate of 0.5 ml·min−1 as the eluent.

[6] = tested on: P. putida S12 strains expressing only HmfABCD or HmfABC; assay: Growth of P. putida S12 strains expressing only HmfABCD or HmfABC; type: cell-based, Pseudomonas putida
HmfFG = assay: Decarboxylase activity of HmfFG in cell extracts; type: biochemical; conditions: cell extracts of wildtype C. basilensis HMF14 and P. putida S12 expressing HmfFG
[7] = shake-flask cultures, compound as single carbon source

## O=Cc1ccco1 [Furfural]
C. basilensis HMF14 [1]
  Max. OD600: 1.09
  μmax: 0.22 h⁻¹
C. basilensis HMF14 [2]; [7]
  Substrate utilization by C. basilensis HMF14: Y
C. basilensis HMF14 [3]
  Growth in the presence of compound: grew
  Growth after 24 h of cultivation: growth was observed at all concentrations tested
[4]
  Utilization as sole carbon source: able to utilize
P. putida strain S12_fur
  Biomass yield: 51 % (C-mol biomass/C-mol substrate)
P. putida strain S12_fur; after 10 serial transfers
  Growth rate: 0.30 h⁻¹
P. putida S12_HMF
  Growth rate: 0.23 h⁻¹
  Yield: 40 % (C-mol biomass/C-mol substrate)
HmfH
  Oxidation by HmfH: could oxidize
Ralstonia eutropha
  Metabolic activity of R. Eutropha on compound: high metabolic activity

## O=C[C@H](O)[C@@H](O)[C@H](O)CO [Xylose]
C. basilensis HMF14 [2]; [7]
  Substrate utilization by C. basilensis HMF14: N
Cupriavidus sp. HMF14
  Growth on carbon source: No growth
C. basilensis HMF14 [5]
  Concentration in hydrolysate during cultivation: stable

## O=C(O)c1ccco1 [Furoic acid]
C. basilensis HMF14 [1]
  Max. OD600: 0.99
  μmax: 0.29 h⁻¹
[4]
  Utilization as sole carbon source: able to utilize
[6]
  Growth on compound: failed to grow

## O=Cc1ccc(O)cc1 [4-hydroxybenzaldehyde]
C. basilensis HMF14 [2]; [7]
  Substrate utilization by C. basilensis HMF14: Y

## COc1cc(C=O)cc(OC)c1O [Syringaldehyde]
C. basilensis HMF14 [2]; [7]
  Substrate utilization by C. basilensis HMF14: N

## O=CO [Formic acid]
C. basilensis HMF14 [2]; only co-utilized with a different carbon source
  Substrate utilization by C. basilensis HMF14: Y^b
C. basilensis HMF14 [5]
  Removal from wheat straw hydrolysate: completely removed

## O=C[C@@H](O)[C@H](O)[C@H](O)CO [Arabinose]
C. basilensis HMF14 [2]; [7]
  Substrate utilization by C. basilensis HMF14: N
Cupriavidus sp. HMF14
  Growth on carbon source: No growth
C. basilensis HMF14 [5]
  Concentration in hydrolysate during cultivation: stable

## COc1ccccc1O [Guaiacol]
C. basilensis HMF14 [2]; [7]
  Substrate utilization by C. basilensis HMF14: Y

## CC(=O)O [Acetic acid]
C. basilensis HMF14 [2]; [7]
  Substrate utilization by C. basilensis HMF14: Y
Cupriavidus sp. HMF14
  Growth on carbon source: able to grow
C. basilensis HMF14 [5]
  Removal from wheat straw hydrolysate: completely removed

## OCc1ccco1 [Furfuryl alcohol]
C. basilensis HMF14 [1]
  Max. OD600: 1.08
  μmax: 0.22 h⁻¹
C. basilensis HMF14 [2]; [7]
  Substrate utilization by C. basilensis HMF14: Y
[4]
  Utilization as sole carbon source: able to utilize
HmfH
  Oxidation by HmfH: could oxidize

## COc1cc(/C=C/C(=O)O)ccc1O [Ferulic acid]
C. basilensis HMF14 [2]; [7]
  Substrate utilization by C. basilensis HMF14: Y

## O=C(O)c1ccc(CO)o1 [HMF acid, 5-hydroxymethyl-2-furancarboxylic acid]
HmfFG
  Decarboxylation by HmfFG: not decarboxylated
HmfH
  Oxidation by HmfH: formed FDCA

## O=C(O)c1ccc(C(=O)O)o1 [FDCA, 2,5-furan-dicarboxylic acid]
HmfFG
  Decarboxylation by HmfFG: formed 2-furoic acid

## c1ccccc1 [benzene]
Cupriavidus sp. HMF14
  Growth on carbon source: able to grow

## O=C(O)[C@H](O)[C@@H](O)[C@H](O)[C@H](O)CO [gluconate]
Cupriavidus sp. HMF14
  Growth on carbon source: able to grow

## COc1cc(C(=O)O)ccc1O [Vanillic acid]
C. basilensis HMF14 [2]; [7]
  Substrate utilization by C. basilensis HMF14: Y

## OCc1ccc(O)cc1 [4-hydroxybenzyl alcohol]
C. basilensis HMF14 [2]; [7]
  Substrate utilization by C. basilensis HMF14: Y

## Oc1ccccc1 [Phenol]
C. basilensis HMF14 [2]; [7]
  Substrate utilization by C. basilensis HMF14: Y
Cupriavidus sp. HMF14
  Growth on carbon source: able to grow

## O=C(O)CC(O)(CC(=O)O)C(=O)O [citrate]
Cupriavidus sp. HMF14
  Growth on carbon source: able to grow

## COc1cccc(OC)c1O [Syringol]
C. basilensis HMF14 [2]; [7]
  Substrate utilization by C. basilensis HMF14: N

## CC(=O)CCC(=O)O [Levulinic acid]
C. basilensis HMF14 [2]; [7]
  Substrate utilization by C. basilensis HMF14: Y

## O=C(O)CCC(=O)O [succinate]
Cupriavidus sp. HMF14
  Growth on carbon source: able to grow

## Cc1ccccc1 [toluene]
Cupriavidus sp. HMF14
  Growth on carbon source: able to grow

## COc1cc(C=O)ccc1O [Vanillin]
C. basilensis HMF14 [2]; [7]
  Substrate utilization by C. basilensis HMF14: Y

## O=Cc1ccc(CO)o1 [HMF, 5-(hydroxymethyl)-furfural]
C. basilensis HMF14 [1]
  Max. OD600: 0.95
  μmax: 0.25^a h−1
C. basilensis HMF14 [2]; [7]
  Substrate utilization by C. basilensis HMF14: Y
C. basilensis HMF14 [3]
  Growth in the presence of compound: grew
  Growth after 24 h of cultivation: growth was observed at all concentrations tested
P. putida S12_HMF
  Growth rate: 0.23 h⁻¹
  Yield: 40 % (C-mol biomass/C-mol substrate)
HmfH
  Oxidation by HmfH: could oxidize

## COc1cc(C(=O)O)cc(OC)c1O [Syringic acid]
C. basilensis HMF14 [2]; [7]
  Substrate utilization by C. basilensis HMF14: N

## O=C(CO)[C@@H](O)[C@H](O)[C@H](O)CO [fructose]
Ralstonia eutropha
  Metabolic activity of R. Eutropha on compound: high metabolic activity

## O=C(O)c1ccc(O)cc1 [4-hydroxybenzoic acid]
C. basilensis HMF14 [2]; [7]
  Substrate utilization by C. basilensis HMF14: Y

## COc1cc(CO)ccc1O [Vanillyl alcohol]
C. basilensis HMF14 [2]; [7]
  Substrate utilization by C. basilensis HMF14: Y
